Experimental data: ChEMBL document CHEMBL4219129, “Design, synthesis and biological evaluation of spiropyrimidinetriones oxazolidinone derivatives as antibacterial agents” (2018)
Values after ≈ are worked out from the molar mass of the structure shown.

Tests used:
Type in all cases: functional
[1] = system: Staphylococcus epidermidis; experiment: Antibacterial activity against linezolid-resistant Staphylococcus epidermidis 1089191
Enterococcus faecium [2] = experiment: Antibacterial activity against vancomycin-resistant Enterococcus faecium R1
Staphylococcus aureus [3] = experiment: Antibacterial activity against Staphylococcus aureus Mu50 ATCC 700699
Enterococcus faecium [4] = experiment: Antibacterial activity against vancomycin-resistant Enterococcus faecium 6A
Enterococcus faecium [5] = experiment: Antibacterial activity against vancomycin-resistant Enterococcus faecium 32/133
Enterococcus faecium [6] = experiment: Antibacterial activity against Enterococcus faecium ATCC 19434
Staphylococcus aureus [7] = experiment: Antibacterial activity against methicillin-resistant Staphylococcus aureus 1201984
Staphylococcus aureus [8] = experiment: Antibacterial activity against methicillin-resistant Staphylococcus aureus 562
Enterococcus faecium [9] = experiment: Antibacterial activity against vancomycin-resistant Enterococcus faecium 03080 DS
Staphylococcus aureus [10] = experiment: Antibacterial activity against methicillin-resistant Staphylococcus aureus DB-00026
Staphylococcus aureus [11] = experiment: Antibacterial activity against PVL positive Staphylococcus aureus
Enterococcus faecium [12] = experiment: Antibacterial activity against Enterococcus faecium NLNZ 572
Staphylococcus aureus [13] = experiment: Antibacterial activity against Staphylococcus aureus ATCC 29213
Enterococcus faecalis [14] = experiment: Antibacterial activity against Enterococcus faecalis ATCC 51299
[15] = system: Staphylococcus epidermidis; experiment: Antibacterial activity against linezolid-resistant Staphylococcus epidermidis 1117174
Escherichia coli [16] = experiment: Antibacterial activity against Escherichia coli MG1655; details: K-12 substr. MG1655
Enterococcus faecium [17] = experiment: Antibacterial activity against Enterococcus faecium 45/146
Escherichia coli [18] = experiment: Antibacterial activity against TolC-deficient Escherichia coli
Staphylococcus aureus [19] = experiment: Antibacterial activity against […] Staphylococcus aureus ATCC 13709 SMITH
Enterococcus faecalis [20] = experiment: Antibacterial activity against Enterococcus faecalis ATCC 29212
[21] = system: Staphylococcus epidermidis; experiment: Antibacterial activity against methicillin-resistant Staphylococcus epidermidis ATCC 35984
Enterococcus faecium [22] = experiment: Antibacterial activity against Enterococcus faecium 575
Staphylococcus aureus [23] = experiment: Antibacterial activity against linezolid-resistant Staphylococcus aureus O-128
Enterococcus faecium [24] = experiment: Antibacterial activity against Enterococcus faecium ATCC 35667
Enterococcus faecium [25] = experiment: Antibacterial activity against linezolid-resistant Enterococcus faecium 303
Staphylococcus aureus [26] = experiment: Antibacterial activity against Staphylococcus aureus FDA 209P
Enterococcus faecalis [27] = experiment: Antibacterial activity against linezolid-resistant Enterococcus faecalis ATCC 29212
[28] = system: Staphylococcus epidermidis; experiment: Antibacterial activity against Staphylococcus epidermidis ATCC 12228
Staphylococcus aureus [29] = experiment: Antibacterial activity against methicillin-resistant Staphylococcus aureus USA300 BAA-1556
Enterococcus faecalis [30] = experiment: Antibacterial activity against Enterococcus faecalis ATCC 19434
Enterococcus faecium [31] = experiment: Antibacterial activity against vancomycin-resistant Enterococcus faecium 31/132
Enterococcus faecium [32] = experiment: Antibacterial activity against vancomycin-resistant Enterococcus faecium 134

Structure (SMILES) | MIC [1] [µg/mL] | MIC (Enterococcus faecium [2]) [µg/mL] | MIC (Enterococcus faecium [6]) [µg/mL] | MIC (Staphylococcus aureus [8]) [µg/mL] | MIC (Enterococcus faecium [9]) [µg/mL] | MIC (Staphylococcus aureus [10]) [µg/mL] | MIC (Staphylococcus aureus [11]) [µg/mL] | MIC (Staphylococcus aureus [13]) [µg/mL] | MIC (Enterococcus faecalis [14]) [µg/mL] | MIC [15] [µg/mL] | MIC (Escherichia coli [16]) [µg/mL] | MIC (Escherichia coli [18]) [µg/mL] | MIC (Staphylococcus aureus [19]) [µg/mL] | MIC (Enterococcus faecalis [20]) [µg/mL] | MIC [21] [µg/mL] | MIC (Enterococcus faecium [22]) [µg/mL] | MIC (Staphylococcus aureus [23]) [µg/mL] | MIC (Enterococcus faecium [24]) [µg/mL] | MIC (Enterococcus faecalis [27]) [µg/mL] | MIC (Enterococcus faecium [31]) [µg/mL] | other results
COC(=O)NC[C@H]1CN(c2ccc(-c3ccc4c(c3)CC3(C(=O)NC(=O)NC3=O)C3CCCN43)c(F)c2)C(=O)O1 (stereo partly drawn) | 32 (≈ 58 µM) | 8 (≈ 14.5 µM) | 16 (≈ 29 µM) | 2 (≈ 3.63 µM) | 8 (≈ 14.5 µM) | 4 (≈ 7.25 µM) | 2 (≈ 3.63 µM) | 2 (≈ 3.63 µM) | 8 (≈ 14.5 µM) | 32 (≈ 58 µM) | > 32 | 4 (≈ 7.25 µM) | > 32 | 8 (≈ 14.5 µM) | 2 (≈ 3.63 µM) | 16 (≈ 29 µM) | 16 (≈ 29 µM) | 8 (≈ 14.5 µM) | 16 (≈ 29 µM) | 16 (≈ 29 µM) | MIC (Staphylococcus aureus [3]): 2 µg/mL (≈ 3.63 µM); MIC (Enterococcus faecium [4]): 8 µg/mL (≈ 14.5 µM); MIC (Enterococcus faecium [5]): 16 µg/mL (≈ 29 µM); MIC (Staphylococcus aureus [7]): 2 µg/mL (≈ 3.63 µM); MIC (Enterococcus faecium [12]): 32 µg/mL (≈ 58 µM); MIC (Enterococcus faecium [17]): 8 µg/mL (≈ 14.5 µM); MIC (Enterococcus faecium [25]): > 32 µg/mL; MIC (Staphylococcus aureus [26]): 4 µg/mL (≈ 7.25 µM); MIC [28]: 2 µg/mL (≈ 3.63 µM); MIC (Staphylococcus aureus [29]): 4 µg/mL (≈ 7.25 µM); MIC (Enterococcus faecalis [30]): 16 µg/mL (≈ 29 µM); MIC (Enterococcus faecium [32]): 16 µg/mL (≈ 29 µM)
CC(=O)NC[C@H]1CN(c2ccc(N3CCOCC3)c(F)c2)C(=O)O1 [LINEZOLID] | > 32 | 4 (≈ 11.9 µM) | 2 to 4 (≈ 5.93 to 11.9 µM) | 2 to 4 (≈ 5.93 to 11.9 µM) | 2 (≈ 5.93 µM) | 2 to 4 (≈ 5.93 to 11.9 µM) | 0.5 to 4 (≈ 1.48 to 11.9 µM) | 2 to 4 (≈ 5.93 to 11.9 µM) | – | > 32 | > 32 | 2 to 8 (≈ 5.93 to 23.7 µM) | 2 to 32 (≈ 5.93 to 94.9 µM) | – | 2 (≈ 5.93 µM) | 2 (≈ 5.93 µM) | 2 to 32 (≈ 5.93 to 94.9 µM) | 0.5 (≈ 1.48 µM) | > 32 | 2 (≈ 5.93 µM) | MIC (Enterococcus faecium [25]): > 32 µg/mL; MIC (Staphylococcus aureus [26]): 4 to 32 µg/mL (≈ 11.9 to 94.9 µM); MIC [28]: 2 to 4 µg/mL (≈ 5.93 to 11.9 µM); MIC (Staphylococcus aureus [29]): 2 to 4 µg/mL (≈ 5.93 to 11.9 µM); MIC (Enterococcus faecium [32]): 2 µg/mL (≈ 5.93 µM)
O=C1NC(=O)C2(Cc3cc(-c4ccc(N5C[C@H](CO)OC5=O)cc4F)ccc3N3CCCCC32)C(=O)N1 (stereo partly drawn) | > 32 | 0.25 (≈ 0.492 µM) | 2 (≈ 3.93 µM) | 2 (≈ 3.93 µM) | 1 (≈ 1.97 µM) | 4 (≈ 7.87 µM) | 2 (≈ 3.93 µM) | 4 (≈ 7.87 µM) | 1 (≈ 1.97 µM) | 32 (≈ 62.9 µM) | > 32 | 4 (≈ 7.87 µM) | 16 (≈ 31.5 µM) | 2 (≈ 3.93 µM) | ≤ 1 | 2 (≈ 3.93 µM) | 16 (≈ 31.5 µM) | 1 (≈ 1.97 µM) | 2 (≈ 3.93 µM) | 2 (≈ 3.93 µM) | MIC (Staphylococcus aureus [3]): 2 µg/mL (≈ 3.93 µM); MIC (Enterococcus faecium [4]): 1 µg/mL (≈ 1.97 µM); MIC (Enterococcus faecium [5]): 2 µg/mL (≈ 3.93 µM); MIC (Staphylococcus aureus [7]): 2 µg/mL (≈ 3.93 µM); MIC (Enterococcus faecium [12]): 4 µg/mL (≈ 7.87 µM); MIC (Enterococcus faecium [17]): 1 µg/mL (≈ 1.97 µM); MIC (Enterococcus faecium [25]): 8 µg/mL (≈ 15.7 µM); MIC (Staphylococcus aureus [26]): 4 µg/mL (≈ 7.87 µM); MIC [28]: 2 µg/mL (≈ 3.93 µM); MIC (Staphylococcus aureus [29]): 4 µg/mL (≈ 7.87 µM); MIC (Enterococcus faecalis [30]): 2 µg/mL (≈ 3.93 µM); MIC (Enterococcus faecium [32]): 2 µg/mL (≈ 3.93 µM)
CC(=O)NC[C@H]1CN(c2ccc(-c3ccc4c(c3)CC3(C(=O)NC(=O)NC3=O)C3CCCCN43)c(F)c2)C(=O)O1 (stereo partly drawn) | > 32 | 1 (≈ 1.82 µM) | 2 (≈ 3.64 µM) | ≤ 1 | 1 (≈ 1.82 µM) | 2 (≈ 3.64 µM) | 4 (≈ 7.28 µM) | 2 (≈ 3.64 µM) | 1 (≈ 1.82 µM) | > 32 | > 32 | 4 (≈ 7.28 µM) | 16 (≈ 29.1 µM) | 2 (≈ 3.64 µM) | ≤ 1 | 2 (≈ 3.64 µM) | 8 (≈ 14.6 µM) | 1 (≈ 1.82 µM) | 4 (≈ 7.28 µM) | 2 (≈ 3.64 µM) | MIC (Staphylococcus aureus [3]): ≤ 1 µg/mL; MIC (Enterococcus faecium [4]): 1 µg/mL (≈ 1.82 µM); MIC (Enterococcus faecium [5]): 4 µg/mL (≈ 7.28 µM); MIC (Staphylococcus aureus [7]): 2 µg/mL (≈ 3.64 µM); MIC (Enterococcus faecium [12]): 4 µg/mL (≈ 7.28 µM); MIC (Enterococcus faecium [17]): 2 µg/mL (≈ 3.64 µM); MIC (Enterococcus faecium [25]): 16 µg/mL (≈ 29.1 µM); MIC (Staphylococcus aureus [26]): 2 µg/mL (≈ 3.64 µM); MIC [28]: 2 µg/mL (≈ 3.64 µM); MIC (Staphylococcus aureus [29]): 2 µg/mL (≈ 3.64 µM); MIC (Enterococcus faecalis [30]): 2 µg/mL (≈ 3.64 µM); MIC (Enterococcus faecium [32]): 4 µg/mL (≈ 7.28 µM)
CN[C@H](CC(C)C)C(=O)N[C@H]1C(=O)N[C@@H](CC(N)=O)C(=O)N[C@H]2C(=O)N[C@H]3C(=O)N[C@H](C(=O)N[C@H](C(=O)O)c4cc(O)cc(O)c4-c4cc3ccc4O)[C@H](O)c3ccc(c(Cl)c3)Oc3cc2cc(c3O[C@@H]2O[C@H](CO)[C@@H](O)[C@H](O)[C@H]2O[C@H]2C[C@](C)(N)[C@H](O)[C@H](C)O2)Oc2ccc(cc2Cl)[C@H]1O [VANCOMYCIN] | – | – | – | – | – | – | – | – | > 32 | – | – | – | – | 2 (≈ 1.38 µM) | – | – | – | – | 2 (≈ 1.38 µM) | > 32 | –
